Experimental data as given in patent publication US20210395327A1, “Growth Hormone-Releasing Hormone Antagonists and Uses Thereof” (United States Government As Represented By The Department …, priority 2019, published 2021).
Non-standard residues stand in square brackets, D forms with d. Residues, ends and D or L forms follow the SMILES beside them. *: point of attachment. Phenylacetyl(2,3,4,5,6-F5) = O=C(Cc1c(F)c(F)c(F)c(F)c1F)*; Phe(F5) = N[C@@H](Cc1c(F)c(F)c(F)c(F)c1F)C(=O)O; Phe(4-Cl) = N[C@@H](Cc1ccc(Cl)cc1)C(=O)O; hArg = N=C(N)NCCCC[C@H](N)C(=O)O; 12Ado = NCCCCCCCCCCCC(=O)O; Nle = CCCC[C@H](N)C(=O)O; Abu = CC[C@H](N)C(=O)O

Experiments:
[1] = test system: lung cancer HCC827 xenograft; assay: Xenograft tumor growth in nude mice, HCC827; assay type: in vivo; settings: Table 4B, Lung Ca HCC827, 7 weeks, 5 μg/day s.c.; for % Inhibition: vs control
Experimental: The peptides' activity was compared with GHRH antagonist MIA-602. All statistical analyzses were performed from comparing GHRA antagonists to non-treated tumor (control).
Peptides and chemicals. GHRH antagonists MIA-602 and AVR-GHRH antagonists (see Table 2 above) were synthesized by solid phase methods and purified by HPLC. The peptides were dissolved in DMSO and further diluted in 10% 1,2-propanediol. The final concentration of peptides was 50 µg/ml in 10% 1,2-propanediol containing 0.1% of DMSO.
(§1) Cell culture. Human cancer cell lines including pancreatic (PANC-1 and CFPAC-1), lung (HCC827 and H460), stomach (NCI-N87), prostate (PC3), brest (MX-1 and HCC-1806), colorectal (HT-29), and ovarian (SK-OV-3 and OVCAR-3) were obtained from the American Type Culture Collection (ATCC) and cultured at 37° C. in a humidified 95% air/5% CO2 atmosphere in the medium recommended by ATCC.
Xenograft models of human cancers in nude mice. Female athymic (NCr nu/nu) nude mice, 5- to 6-weeks-old, obtained from the Envigo labs (Tampa, Fla.), were housed in laminar airflow cabinets under pathogen-free conditions with a 12-h light/12-h dark schedule, and were fed autoclaved standard chow and water. To generate mice with xenografted tumors, tumor xenografts were initiated by subcutaneous (s.c.) injection of 107 human cancer cells into female nude mice. After about 4 weeks the resulting tumors were dissected and collected after removing necrosis tissues. The tumors were then cut into particles with size of 3 mm3 and transplanted s.c. by trocar needle into experimental animals. When tumors grew to the size of 50-60 mm3 (by volume), mice were randomized into groups and treated daily for 4-8 weeks by subcutaneous administration of 5 μg of GHRH antagonists MIA-602 or AVR-compounds (2-10 μg as indicated), or vehicle solutions (0.1% DMSO in 10% 1,2-propanediol) respectively. Tumor sizes were measured weekly.
Statistical analysis. One-way ANOVA followed by Bonferroni comparison were performed. Data are expressed as Mean±SEM. To determine statistical significance between animal groups, two-tailed Student's t-test was conducted. Differences were considered significant when p<0.05.
Results. […] FIG. 1A-N represents in vivo inhibition of tumor growth during the treatment with GHRH antagonist MIA-602 and selected AVR antagonists in nude mice xenografted with various human tumors including pancreatic cancer PANC-1 (FIG. 1A) and CFPAC-1 (FIG. 1I); lung cancer HCC827 (FIGS. 1B, C) and H460 (FIG. 1H); stomach cancer N87 (FIGS. 1D-F); colon cancer HT-29 (FIG. 1G); breast cancer MX-1 and HCC-1806 (FIGS. 1J, K); ovarian cancer SK-OV-3 and OVACAR-3 (FIGS. 1 L, M) and prostate cancer PC3 (FIG. 1N). See also Table 5.

[2] = test system: NCI-N87 stomach cancer cells; assay: In vitro cell viability (CellTiter 96), N87; assay type: cell-based, human; settings: for In vitro relative inhibitory potency in comparison to MIA-602, NCI-N87: Table 3B, 5 μM for 72 H, MIA-602 = 1
Experimental: The inhibitory effects of the various synthesized GHRH antagonists were tested in cell proliferation assays in various human cancer cell lines including stomach cancer (KATOIII, N87), colon cancer (HT-29), urothelial cancer (J82, RT4), pancreatic cancer (PANC-1, CFPAC-1), prostatic cancer (PC3), breast cancer (MX-1, HCC1806), ovarian cancer (SK-OV-3, OVCAR-3) and lung cancer (HCC827, H460).
as §1, with “(NCI-N87 and KATOIII), urothelial (J82, RT4), prostatic” for “(NCI-N87), prostate”, “breast” for “brest”, “HCC 1806),” for “HCC-1806),”
In vitro cell viability. Cell viability was analyzed as follows: cancer cells including pancreatic (PANC-1 and CFPAC-1), lung (HCC827 and H460), stomach (NCI-N87 and KATOIII), urothelial (J82, RT4), prostatic (PC3) and breast (MX-1 and HCC 1806), colorectal (HT-29) and ovarian (SK-OV-3 and OVCAR-3) were grown on 96 well plates to ˜60% confluence, the cells were starved for 24 h in culture medium containing 0.5% FBS. Cells were then treated with GHRH antagonists MIA602 AVR compounds at concentrations of 1, 2.5 or 5 μM, or vehicle (0.1% DMSO) in quintuplicates for 72 hours. The medium was replaced every 48 hours. Cell viability was measured using CellTiter 96 aqueous one solution kit (Promega). Inhibitory effects of tested AVR compounds in comparison to that of MIA602 are presented as inhibitory potency.
Inhibitory effects of selected AVR compounds in comparison to that of MIA602 are presented as inhibitory potency (e.g., percentage of inhibition). […] The cell lines tested including lung cancer HCC827 (FIG. 2A), pancreatic cancer CFPAC-1 (FIG. 2B), stomach cancer N87 (FIG. 2C), colon cancer HT-29 (FIG. 2D), breast cancers MX-1 and HCC1806 (FIGS. 2 E, F). Based on the results of cell proliferation assay after cancer cells were treated with antagonist at concentration of 5 μM for 72H, the relative inhibitory potency of AVR antagonists in comparison to MIA-602 is summarized in Table 3 A and B. Over 60 AVR compounds were tested in 12 cancer cell lines.
Based on the results of cell proliferation assay after cancer cells were treated with antagonist at concentration of 5 µM for 72H, * at concentration of 2 µM for 72 H.

HCC827 lung cancer cells = assay: In vitro cell viability, HCC827; assay type: cell-based, human; settings: for In vitro relative inhibitory potency in comparison to MIA-602, HCC827: Table 3B, 5 μM for 72 H, MIA-602 = 1
Summary of the method: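 Cells grown to ~60% confluence, serum-starved 24 h in 0.5% FBS medium, then exposed to compounds at 5 μM (some at 2 μM) or 0.1% DMSO vehicle for 72 h, in quintuplicate, medium changed every 48 h. Viability read by MTS-type CellTiter 96 AQueous assay; values are inhibitory potency relative to MIA602.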

[3] = antagonist 5 μM for 72 h, cell proliferation assay, MIA602 = 1

Structure (SMILES) | Tumor Growth % [1] | % Inhibition [1] | In vitro relative inhibitory potency in comparison to MIA-602, NCI-N87 [2] | relative inhibitory potency in comparison to MIA-602, Stomach N87 [2, 3] | In vitro relative inhibitory potency in comparison to MIA-602, HCC827 (HCC827 lung cancer cells) | relative inhibitory potency in comparison to MIA-602, Lung IICC827 (HCC827 lung cancer cells; [3])
CCCC[C@H](NC(=O)[C@@H](NC(=O)[C@H](CC(=O)O)NC(=O)[C@H](CCC(N)=O)NC(=O)[C@H](CC(C)C)NC(=O)[C@H](CC(C)C)NC(=O)[C@H](CCCCN)NC(=O)[C@H](CCCNC(=N)N)NC(=O)[C@H](C)NC(=O)[C@H](CO)NC(=O)[C@H](CC(C)C)NC(=O)[C@H](CCC(N)=O)NC(=O)[C@H](CC)NC(=O)[C@H](CC(C)C)NC(=O)[C@@H](NC(=O)[C@H](CCCCN)NC(=O)[C@H](CCCNC(=N)N)NC(=O)[C@H](Cc1ccc(OC)cc1)NC(=O)[C@H](CCCCNC(=N)N)NC(=O)[C@H](C)NC(=O)[C@@H](NC(=O)[C@H](Cc1c(F)c(F)c(F)c(F)c1F)NC(=O)[C@@H](NC(=O)[C@H](C)NC(=O)[C@H](CC(=O)O)NC(=O)[C@@H](CCCNC(=N)N)NC(=O)[C@H](Cc1ccc(O)cc1)NC(=O)CCCCCCCCCCCNC(=O)Cc1c(F)c(F)c(F)c(F)c1F)[C@@H](C)CC)[C@@H](C)O)C(C)C)[C@@H](C)CC)C(=O)N[C@H](CCCNC(=N)N)C(=O)N[C@@H](CCCCNC(=N)N)C(=O)NC [AVR-235] ({Phenylacetyl(2,3,4,5,6-F5)-12Ado}-Y[dR]DAI[Phe(F5)]TA[hArg]Y(Me)RKVL[Abu]QLSARKLLQDI[Nle][dR][hArg]-NHMe) | 771.0% | 41.2% | 1.67 | 2.911 | 1.08 | 1.506
CCCC[C@H](NC(=O)[C@@H](NC(=O)[C@H](CC(=O)O)NC(=O)[C@H](CCC(N)=O)NC(=O)[C@H](CC(C)C)NC(=O)[C@H](CC(C)C)NC(=O)[C@H](CCCCN)NC(=O)[C@H](CCCNC(=N)N)NC(=O)[C@H](C)NC(=O)[C@H](CO)NC(=O)[C@H](CC(C)C)NC(=O)[C@H](CCC(N)=O)NC(=O)[C@H](CC)NC(=O)[C@H](CC(C)C)NC(=O)[C@@H](NC(=O)[C@H](CCCCN)NC(=O)[C@H](CCCNC(=N)N)NC(=O)[C@H](Cc1ccc(OC)cc1)NC(=O)[C@H](CCCCNC(=N)N)NC(=O)[C@H](CC(N)=O)NC(=O)[C@@H](NC(=O)[C@H](Cc1ccc(Cl)cc1)NC(=O)[C@@H](NC(=O)[C@H](C)NC(=O)[C@H](CC(=O)O)NC(=O)[C@@H](CCCNC(=N)N)NC(=O)[C@H](Cc1ccc(O)cc1)NC(=O)CCCCCCCCCCCNC(=O)Cc1c(F)c(F)c(F)c(F)c1F)[C@@H](C)CC)[C@@H](C)O)C(C)C)[C@@H](C)CC)C(=O)N[C@H](CCCNC(=N)N)C(=O)N[C@@H](CCCCNC(=N)N)C(=O)NCCCCCCCCCCCC(N)=O [AVR-333, 5FPhAC-Ada-Tyr-DArg-Asp-Ala-Ile-Cpa-Thr-Asn-Har-Tyr(Me)-Arg-Lys-Val-Leu-Abu-Gln-Leu-Ser-Ala-Arg-Lys-Leu-Leu-Gln-Asp-Ile-Nle-DArg-Har-Ada-NH2] ({Phenylacetyl(2,3,4,5,6-F5)-12Ado}-Y[dR]DAI[Phe(4-Cl)]TN[hArg]Y(Me)RKVL[Abu]QLSARKLLQDI[Nle][dR][hArg][12Ado]-NH2) | 407.5% | 68.9% | 1.4 | – | 1.177 | –
CCCC[C@H](NC(=O)[C@@H](NC(=O)[C@H](CC(=O)O)NC(=O)[C@H](CCC(N)=O)NC(=O)[C@H](CC(C)C)NC(=O)[C@H](CC(C)C)NC(=O)[C@H](CCCCN)NC(=O)[C@H](CCCNC(=N)N)NC(=O)[C@H](C)NC(=O)[C@H](CO)NC(=O)[C@H](CC(C)C)NC(=O)[C@H](CCC(N)=O)NC(=O)[C@H](CC)NC(=O)[C@H](CC(C)C)NC(=O)[C@@H](NC(=O)[C@H](CCCCN)NC(=O)[C@H](CCCNC(=N)N)NC(=O)[C@H](Cc1ccc(OC)cc1)NC(=O)[C@H](CCCCNC(=N)N)NC(=O)[C@H](C)NC(=O)[C@@H](NC(=O)[C@H](Cc1c(F)c(F)c(F)c(F)c1F)NC(=O)[C@@H](NC(=O)[C@H](C)NC(=O)[C@H](CC(=O)O)NC(=O)[C@@H](CCCNC(=N)N)NC(=O)[C@H](Cc1ccc(O)cc1)NC(=O)CCCCCCCCCCCNC(=O)Cc1c(F)c(F)c(F)c(F)c1F)[C@@H](C)CC)[C@@H](C)O)C(C)C)[C@@H](C)CC)C(=O)N[C@H](CCCNC(=N)N)C(=O)N[C@@H](CCCCNC(=N)N)C(=O)NCCCCCCCCCCCC(N)=O [AVR-352, 5FPhAC-Ada-Tyr-DArg-Asp-Ala-Ile-5FPhe-Thr-Ala-Har-Tyr(Me)-Arg-Lys-Val-Leu-Abu-Gln-Leu-Ser-Ala-Arg-Lys-Leu-Leu-Gln-Asp-Ile-Nle-DArg-Har-Ada-NH2] ({Phenylacetyl(2,3,4,5,6-F5)-12Ado}-Y[dR]DAI[Phe(F5)]TA[hArg]Y(Me)RKVL[Abu]QLSARKLLQDI[Nle][dR][hArg][12Ado]-NH2) | 371.7% | 71.6% | 1.809 | – | 2.01 | –
CCCC[C@H](NC(=O)[C@@H](NC(=O)[C@H](CC(=O)O)NC(=O)[C@H](CCC(N)=O)NC(=O)[C@H](CC(C)C)NC(=O)[C@H](CC(C)C)NC(=O)[C@H](CCCCN)NC(=O)[C@H](CCCNC(=N)N)NC(=O)[C@H](C)NC(=O)[C@H](CO)NC(=O)[C@H](CC(C)C)NC(=O)[C@H](CCC(N)=O)NC(=O)[C@H](CC)NC(=O)[C@H](CC(C)C)NC(=O)[C@@H](NC(=O)[C@H](CCCCN)NC(=O)[C@H](CCCNC(=N)N)NC(=O)[C@H](Cc1c(F)c(F)c(F)c(F)c1F)NC(=O)[C@H](CCCCNC(=N)N)NC(=O)[C@H](C)NC(=O)[C@@H](NC(=O)[C@H](Cc1ccc(Cl)cc1)NC(=O)[C@@H](NC(=O)[C@H](C)NC(=O)[C@H](CC(=O)O)NC(=O)[C@@H](CCCNC(=N)N)NC(=O)[C@H](Cc1ccc(O)cc1)NC(=O)CCCCCCCCCCCNC(=O)Cc1c(F)c(F)c(F)c(F)c1F)[C@@H](C)CC)[C@@H](C)O)C(C)C)[C@@H](C)CC)C(=O)N[C@H](CCCNC(=N)N)C(=O)N[C@@H](CCCCNC(=N)N)C(=O)NCCCCCCCCCCCC(=O)NC [AVR-354] ({Phenylacetyl(2,3,4,5,6-F5)-12Ado}-Y[dR]DAI[Phe(4-Cl)]TA[hArg][Phe(F5)]RKVL[Abu]QLSARKLLQDI[Nle][dR][hArg][12Ado]-NHMe) | – | – | – | – | 2.595 | –
